Tests used:
[1] = tested on: murine splenocytes; assay: Murine splenocyte proliferation with PHA or LPS; format: cell-based, BALB/c mice; settings: for tritiated thymidine incorporation, LPS 10 μg/ml / tritiated thymidine incorporation, PHA 0.5 μg/ml: mean CPM±SEM
Description: (§1) In vitro: Both human peripheral blood lymphocytes (HPBL) and mouse spleen lymphocytes (MSL) were employed. Proliferation was assayed by tritiated thymidine incorporation, as described in Hadden et al. (1975) and Hadden et al. (1986). For HPBL transformation, PHA and PWM were used at 0.5 μg/ml. For MSL transformation, Con A was used at 0.5 μg/ml, phytohemagglutinin (PHA, Murex Diagnostics, Atlanta, Ga.) at 0.5 μg/ml and lipopolysaccharide endotoxin (LPS, Sigma, St. Louis, Mo.) at 10 μg/ml. When protected-IMP derivatives were added, they were added at the onset of culture at varying concentrations ranging from 0.1 μg/ml to 100 μg/ml.
(§2) Murine splenocytes were obtained from BALB/c mice, 4-12 months old, by standard procedures (Hadden et al., 1975). They were cultured in microwell plates at 1.5×10^6 cells/ml of minimal essential media (MEM, Gibco Labs, Grand Island, N.Y.) with 5% fetal calf serum (FCS, Hyclone Labs, Logan, Utah) and tested for their proliferative response to mitogens as measured by incorporation of (^3 H) tritiated thymidine (New England Nuclear, Wilmington Del., […]; 2.5 μCi/ml) during a terminal pulse followed by liquid scintillation spectrometry. Human cells were seeded at […] and cultured for 48 hours with an 18 hour pulse with ^3 H-thymidine.
In a further experiment, murine splenocytes were incubated with PHA or LPS and MIMP (1-100 μg/ml). […] Splenocyte responses to PHA preferentially reflect T lymphocyte responses, confirming the responses seen with ConA. The LPS responses also parallel the previous experiment.
The data was obtained from four different animals and represent quadruplicate samples for each concentration. They are expressed as mean CPM±SEM, with * showing a significance of p<0.05 and ** showing p<0.01.

[2] = tested on: IL-10; assay: PHA-induced IL-10 production; format: cell-based; settings: preliminary data
[3] = tested on: Salm. typhimurium strain 415; assay: Salmonella infection mortality; format: in vivo, BALB/c mice; settings: the various treatments of MIMP; p<0.01; control about 2.5 days
[4] = tested on: spleen plaque antibody forming cells (PFC); assay: In vivo stimulation of PFC response to SRBC; design: species or system mice
Description: Five days later, suspensions of spleen cells were prepared and their viability was determined by trypan blue exclusion test. Cells were suspended at 3×10^6 /ml. 0.2 ml of spleen cell suspension was mixed with 0.8 ml of 0.7% agarose and 0.2 ml of freshly washed SRBC (at 6×10^5 /ml). The mixture was immediately poured into the plate and allowed to solidify. After 60 minutes of incubation at 37° C. in a humid atmosphere of 5% CO2 in the air, the plate was flooded with 1 ml of guinea-pig complement diluted 1:5 with Hank's balanced saline. Hemolytic plaques were counted with an inverted scope using 4× magnification.
Spleen plaque antibody forming cells (PFC) were measured at the end of the five days.

[5] = tested on: prothymocytes; settings: Touraine et al., 1991; cited from earlier work
[6] = tested on: spleen lymphocytes; assay: In vitro response to mitogens following in vivo oral administration; design: species or system mice; settings: oral Me-IMP for five days, 0-100 mg/kg
Description: In vivo: Compounds were administered orally, by garage, or intraperitoneally. At termination, spleens were obtained as described in Florentin et al. (1982) and cells were prepared for proliferative response with Con A=0.5 μg/ml, PHA=0.5 μg/ml or LPS=0.5 μg/ml.
Spleen lymphocytes were obtained from mice that had been orally administered Me-IMP for five days, range of 0-100 mg/kg body weight, and then sacrificed. The spleen lymphocytes were incubated with PHA (0.5 μg/ml) or Con A (0.5 μg/ml) for 48 hours. Cultures were pulsed with tritiated thymidine for the last 18 hours.

[7] = tested on: human peripheral blood lymphocytes (HPBL); assay: Response of normal HPBL to PWM; format: cell-based; settings: PWM 0.5 μg/ml
Description: as §1, §2
Normal human peripheral blood lymphocytes (HPBL) were stimulated with the mitogenic agents PHA or PWM. […]

[8] = tested on: anti-HBs; assay: Anti-HBs production in normal DBA/2 mice (EIA); format: in vivo; settings: for anti-HBs, Day 14 / anti-HBs, Day 21: 50 mg/kg
Excerpt: Different strains of mice, coded by Pre-S2 zone S-gene HBV for their immune responses for proteins place them in the following haplotype order (Benaceraf and McDevitt, 1972): H-2^b >H-2^d >H-2^s >H-2^k>H-2^f. […] Therefore, male DBA/2 mice weighing 16-18 grams were obtained from the Animal Laboratory, Academy of Medical Science, Russia, and were used in the examples set forth herein. This line of mice was chosen as they are poor responders to hepatitis B vaccine.
Serum specimens from immunized mice were tested for the presence of anti-HBs in an enzyme immunoassay (EIA) using the diagnostic kits of Roche Diagnostica as per the manufacturer's instructions. The anti-HBs EIA kit (Roche), has a sensitivity of <10 IU/1.
Antibody concentration was determined with the help of calibration curves designed on the basis of the results of anti-HBs detection in standard serum panel (Roche Diagnostica) with the concentrations, as follows: 10 IU/l; 50 IU/l; 100 IU/l and 150 IU/l. The results of the two experiments were used for the calculation of mean values.
HBsAg was administered at a dose of […] in 0.2 ml PBS (pH 7.4) twice with an interval of two weeks between injections.
A protected-IMP, MIMP, was introduced both orally or intraperitoneally at a dose of 50 mg/kg.
The results of anti-HBs detection in the control group of mice treated with HBsAg alone and in the groups treated with the combination of HBsAg and MIMP, as prepared in the examples, are presented in Table 9. The various vaccination schedules are provided in the following list.

[9] = scheme 3: HBsAg + MIMP i.p. simultaneously then MIMP per os, p < 0.01

COP(=O)(O)OC[C@H]1O[C@@H](n2cnc3c(=O)[nH]cnc32)[C@H](O)[C@@H]1O [Me-IMP, Methyl-5'-inosine-monophosphate]
tritiated thymidine incorporation, LPS 10 μg/ml ([1]; MIMP 1 μg/ml): 47261 ± 997 CPM | tritiated thymidine incorporation, PHA 0.5 μg/ml ([1]; MIMP 1 μg/ml): 106647 ± 4917 CPM | tritiated thymidine incorporation, LPS 10 μg/ml ([1]; MIMP 10 μg/ml, p<0.05): 57481 ± 2343 CPM | tritiated thymidine incorporation, PHA 0.5 μg/ml ([1]; MIMP 10 μg/ml, p<0.05): 117247 ± 6500 CPM | tritiated thymidine incorporation, PHA 0.5 μg/ml ([1]; MIMP 100 μg/ml, p<0.01): 124801 ± 6630 CPM | tritiated thymidine incorporation, LPS 10 μg/ml ([1]; MIMP 100 μg/ml, p<0.05): 55153 ± 6176 CPM | splenocyte responses in the absence of mitogens ([1]; MIMP 1-100 μg/ml): did not affect | proliferative responses in the presence of mitogens ([1]; MIMP 1-100 μg/ml, PHA or LPS): progressively and significantly augumented | effect on IL-10 production [2]: potently inhibits | MST [3]: about four | effect on PFC response ([4]; 50 mg/kg of body weight ip with SRBC, PFC five days later): significantly stimulated | dose of optimal stimulation of PFC response ([4]; intraperitoneal): 50 mg/kg of body weight | PFC activity at lower doses ([4]; intraperitoneal, below 50 mg/kg): active at lower doses | peak dose for stimulation of PFC response ([4]; oral, with SRBC antigen and daily for five days): 50 mg/kg of body weight | differentiation markers of prothymocytes [5]: induce differentiation markers of prothymocytes | Con A response of spleen lymphocytes [6]: stimulated | PHA response of spleen lymphocytes [6]: stimulated | effect on PWM response of HPBL [7]: not affected | anti-HBs, Day 14 ([8]; scheme 2: HBsAg + MIMP per os 30 minutes prior to vaccine): < 10 IU/1 | anti-HBs, Day 21 ([8]; scheme 2: HBsAg + MIMP per os 30 minutes prior to vaccine, 0.01 < p < 0.05): 370 IU/1 | anti-HBs, Day 14 [8, 9]: 100 IU/1 | anti-HBs, Day 21 [8, 9]: 610 IU/1 | anti-HBs, Day 21 ([8]; scheme 4: HBsAg + MIMP i.p. simultaneously, 0.01 < p < 0.05): 420 IU/1 | anti-HBs, Day 14 ([8]; scheme 4: HBsAg + MIMP i.p. simultaneously, p < 0.01): 100 IU/1 | level of antibodies to HBsAg ([8]; single intraperitoneal or single oral dose of 50 mg/kg): significant increase
